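Cells were grown in 96-well plates and exposed to each compound for 48 hours at five concentrations; endpoints were interpolated linearly between bracketing concentrations, or set to the highest concentration if not reached. The concentration for full growth arrest is given as TGI.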
Experiments:
Assay in all cases: growth of human tumour cells (NCI), 48 h
[1] = system: SF-295 CNS
[2] = system: NCI-H460 lung
[3] = system: ACHN renal
[4] = system: UO-31 renal
[5] = system: HCC-2998 colon
[6] = system: K-562 leukemia
[7] = system: MOLT-4 leukemia
[8] = system: OVCAR-8 ovarian
[9] = system: SK-OV-3 ovarian
[10] = system: SK-MEL-2 melanoma
[11] = system: TK-10 renal
[12] = system: KM12 colon
[13] = system: SF-539 CNS
[14] = system: SN12C renal
[15] = system: LOX IMVI melanoma
[16] = system: SNB-19 CNS
[17] = system: SK-MEL-5 melanoma
[18] = system: NCI-H226 lung
[19] = system: M14 melanoma
[20] = system: UACC-257 melanoma
[21] = system: DLD-1 colon
[22] = system: XF 498 CNS
[23] = system: OVCAR-3 ovarian
[24] = system: MALME-3M melanoma
[25] = system: SNB-78 CNS
[26] = system: NCI-H522 lung
[27] = system: 786-0 renal
[28] = system: LXFL 529 NSCLC
[29] = system: UACC-62 melanoma
[30] = system: RXF 393 renal
[31] = system: SK-MEL-28 melanoma
[32] = system: U251 CNS
[33] = system: HL-60(TB) leukemia
[34] = system: M19-MEL melanoma
[35] = system: HCT-15 colon
[36] = system: OVCAR-4 ovarian
[37] = system: SNB-75 CNS
[38] = system: DMS 114 small cell lung
[39] = system: SF-268 CNS
[40] = system: CCRF-CEM leukemia
[41] = system: HOP-18 NSCLC
[42] = system: HT29 colon
[43] = system: A549 NSCLC
[44] = system: HCT-116 colon
[45] = system: NCI-H23 lung
[46] = system: COLO 205 colon
[47] = system: SW-620 colon
[48] = system: HOP-62 NSCLC
[49] = system: DMS 273 small cell lung
[50] = system: A498 renal
[51] = system: HOP-92 NSCLC
[52] = system: RPMI-8226 leukemia
[53] = system: EKVX NSCLC
[54] = system: OVCAR-5 ovarian
[55] = system: CAKI-1 renal
[56] = system: IGROV1 ovarian
[57] = system: KM20L2 colon

## O=C(NN1C(=O)C(Cl)C1c1ccccc1Cl)c1ccccc1O (stereo not given)
[1]
  TGI: > 100 µM
[2]
  TGI: > 100 µM
[3]
  TGI: > 100 µM
[4]
  TGI: > 100 µM
[5]
  TGI: > 100 µM
[6]
  TGI: > 100 µM
[7]
  TGI: > 100 µM
[8]
  TGI: > 100 µM
[9]
  TGI: > 100 µM
[10]
  TGI: > 100 µM
[11]
  TGI: > 100 µM
[12]
  TGI: > 100 µM
[13]
  TGI: > 100 µM
[14]
  TGI: > 100 µM
[15]
  TGI: > 100 µM
[16]
  TGI: > 100 µM
[17]
  TGI: > 100 µM
[18]
  TGI: > 100 µM
[19]
  TGI: > 100 µM
[20]
  TGI: > 100 µM
[21]
  TGI: > 100 µM
[22]
  TGI: > 100 µM
[23]
  TGI: > 100 µM
[24]
  TGI: > 100 µM
[25]
  TGI: > 100 µM
[26]
  TGI: > 100 µM
[27]
  TGI: > 100 µM
[28]
  TGI: > 100 µM
[29]
  TGI: > 100 µM
[30]
  TGI: 88.2 µM
[31]
  TGI: > 100 µM
[32]
  TGI: > 100 µM
[33]
  TGI: > 100 µM
[34]
  TGI: > 100 µM
[35]
  TGI: > 100 µM
[36]
  TGI: > 100 µM
[37]
  TGI: > 100 µM
[38]
  TGI: > 100 µM
[39]
  TGI: > 100 µM
[40]
  TGI: > 100 µM
[41]
  TGI: > 100 µM
[42]
  TGI: > 100 µM
[43]
  TGI: > 100 µM
[44]
  TGI: > 100 µM

## CCC(C)c1cccc(C)c1NC(=O)C(=O)Cc1nc2ccccc2s1 (stereo not given)
[1]
  TGI: > 100 µM
[2]
  TGI: > 100 µM
[3]
  TGI: > 100 µM
[4]
  TGI: > 100 µM
[5]
  TGI: > 100 µM
[6]
  TGI: > 100 µM
[7]
  TGI: > 100 µM
[45]
  TGI: > 100 µM
[46]
  TGI: > 100 µM
[8]
  TGI: > 100 µM
[9]
  TGI: > 100 µM
[10]
  TGI: > 100 µM
[11]
  TGI: > 100 µM
[12]
  TGI: > 100 µM
[47]
  TGI: > 100 µM
[48]
  TGI: > 100 µM
[13]
  TGI: > 100 µM
[14]
  TGI: > 100 µM
[15]
  TGI: > 100 µM
[49]
  TGI: > 100 µM
[16]
  TGI: > 100 µM
[17]
  TGI: > 100 µM
[19]
  TGI: > 100 µM
[20]
  TGI: > 100 µM
[21]
  TGI: > 100 µM
[50]
  TGI: > 100 µM
[51]
  TGI: > 100 µM
[22]
  TGI: > 100 µM
[23]
  TGI: > 100 µM
[24]
  TGI: > 100 µM
[25]
  TGI: > 100 µM
[26]
  TGI: > 100 µM
[27]
  TGI: > 100 µM
[28]
  TGI: > 100 µM
[29]
  TGI: > 100 µM
[30]
  TGI: > 100 µM
[52]
  TGI: > 100 µM
[31]
  TGI: > 100 µM
[53]
  TGI: > 100 µM
[32]
  TGI: > 100 µM
[33]
  TGI: > 100 µM
[34]
  TGI: > 100 µM
[54]
  TGI: > 100 µM
[35]
  TGI: > 100 µM
[36]
  TGI: > 100 µM
[55]
  TGI: > 100 µM
[37]
  TGI: > 100 µM
[38]
  TGI: > 100 µM
[39]
  TGI: > 100 µM
[56]
  TGI: > 100 µM
[40]
  TGI: > 100 µM
[41]
  TGI: > 100 µM
[57]
  TGI: > 100 µM
[42]
  TGI: > 100 µM
[43]
  TGI: > 100 µM
[44]
  TGI: > 100 µM

— PubChem BioAssay (NCI)
